Data as given in patent US9499538B2, “Estrogen receptor modulators and uses thereof” (Seragon Pharmaceuticals, Inc., priority 2012, dated 2016).

Experiments:
[1] = system: MCF-7 cells; assay: Breast Cancer Cell Viability Assays (MCF-7, CellTiter-Glo); format: cell-based; details: 5 days' compound exposure; for IC50: Homo sapiens, MCF7, 120 h
Summary of the method: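 MCF-7 cells (320/well, RPMI with 10% FBS) exposed for 5 days to an eleven-point semilog series, 0.3–0.000003 μM final. Viability read by CellTiter-Glo luminescence, expressed as background-corrected percent of untreated cells.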

[2] = target: T1, ER-α in MCF-7 cells (Homo sapiens, UniProt P03372); assay: Breast Cancer Cell ER-α In Cell Western Assay (SP1); format: cell-based; details: 4 or 24 hr post compound addition; for Emax: MCF7, SP1 antibody, read-out: ER-α In Cell Western Assay (SP1) Max Response; for DC50: SP1 antibody, read-out: ER-α In Cell Western Assay (SP1) IC50
T1 construct: endogenous in cells; host or cells: MCF-7
T1 sequence (P03372 1-595): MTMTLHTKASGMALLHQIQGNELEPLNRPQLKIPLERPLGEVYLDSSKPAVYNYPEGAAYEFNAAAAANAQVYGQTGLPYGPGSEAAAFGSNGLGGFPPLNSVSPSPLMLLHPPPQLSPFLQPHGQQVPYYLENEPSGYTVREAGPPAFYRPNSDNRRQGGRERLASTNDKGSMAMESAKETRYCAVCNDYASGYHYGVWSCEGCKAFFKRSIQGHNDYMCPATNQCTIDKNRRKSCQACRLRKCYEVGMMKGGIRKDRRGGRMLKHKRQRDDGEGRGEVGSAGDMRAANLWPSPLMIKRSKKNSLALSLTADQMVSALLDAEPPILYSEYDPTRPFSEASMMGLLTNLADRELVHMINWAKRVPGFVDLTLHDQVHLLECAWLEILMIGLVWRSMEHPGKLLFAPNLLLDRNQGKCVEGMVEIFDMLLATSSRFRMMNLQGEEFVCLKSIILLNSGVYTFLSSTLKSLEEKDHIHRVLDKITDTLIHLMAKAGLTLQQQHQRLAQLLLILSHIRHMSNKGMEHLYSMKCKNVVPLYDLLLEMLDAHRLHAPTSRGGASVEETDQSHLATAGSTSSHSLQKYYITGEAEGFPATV
Summary of the method: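 MCF-7 cells in charcoal-stripped FBS medium, treated with 11-point semilog dilutions (0.3–0.000003 μM final) for 4 or 24 h. Fixed cells immunostained with SP1 antibody (800 nm) and DRAQ5 DNA (700 nm); ER/DNA ratio expressed as % of untreated cells.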

| IC50 [1] | Emax [2] | DC50 [2] | Structure (SMILES) | MCF7 Viability Assay Max Response [1] |
| --- | --- | --- | --- | --- |
| > 100 nM | ≥ 40% | > 100 nM | O=C(O)/C=C/c1ccc(/C(=C(\c2ccnc(O)c2)C2CCC2)c2ccc3[nH]nc(F)c3c2)cc1 [Example 214, (E)-3-(4-((E)-2-Cyclobutyl-1-(3-fluoro-1H-indazol-5-yl)-2-(2-hydroxypyridin-4-yl)vinyl)phenyl)acrylic acid] | + (+ = a single % value < 40%) |
| ≤ 100 nM | ≥ 40% | ≤ 100 nM | COc1cc(C)c(/C(=C(\c2ccc(/C=C/C(=O)O)cc2)c2ccc3scnc3c2)C2CCC2)cn1 [Example 85, (E)-3-(4-((E)-1-(Benzo[d]thiazol-5-yl)-2-cyclobutyl-2-(6-methoxy-4-methylpyridin-3-yl)vinyl)phenyl)acrylic acid] | ++ (++ = a single % value ≧ 40%) |
| ≤ 100 nM | ≥ 40% | ≤ 100 nM | O=C(O)/C=C/c1ccc(/C(=C(\c2ccccc2F)C2CC2)c2ccc3[nH]nc(F)c3c2)cc1 [Example 154, (E)-3-(4-((E)-2-Cyclopropyl-1-(3-fluoro-1H-indazol-5-yl)-2-(2-fluorophenyl)vinyl)phenyl)acrylic acid] | ++ (++ = a single % value ≧ 40%) |
| ≤ 100 nM | ≥ 40% | ≤ 100 nM | Cc1cccnc1/C(=C(\c1ccc(/C=C/C(=O)O)cc1)c1ccc2scnc2c1)C1CCC1 [Example 98, (E)-3-(4-((E)-1-(Benzo[d]thiazol-5-yl)-2-cyclobutyl-2-(3-methylpyridin-2-yl)vinyl)phenyl)acrylic acid] | ++ (++ = a single % value ≧ 40%) |
| ≤ 100 nM | ≥ 40% | ≤ 100 nM | N#Cc1cscc1/C(=C(\c1ccc(/C=C/C(=O)O)cc1)c1ccc2[nH]nc(F)c2c1)C1CCC1 [Example 82, (E)-3-(4-((E)-2-(4-Cyanothiophen-3-yl)-2-cyclobutyl-1-(3-fluoro-1H-indazol-5-yl)vinyl)phenyl)acrylic acid] | ++ (++ = a single % value ≧ 40%) |
| ≤ 100 nM | ≥ 40% | ≤ 100 nM | O=C(/C=C/c1ccc(/C(=C(\c2ccccc2)C2CCC2)c2ccc3[nH]nc(F)c3c2)cc1)NCC(O)CO (stereo not drawn) [Example 188, (E)-3-(4-((E)-2-Cyclobutyl-1-(3-fluoro-1H-indazol-5-yl)-2-phenylvinyl)phenyl)-N-(2,3-dihydroxypropyl)acrylamide] | ++ (++ = a single % value ≧ 40%) |
| ≤ 100 nM | ≥ 40% | ≤ 100 nM | O=C(O)/C=C/c1ccc(/C(=C(\c2ccc(OC(F)(F)F)cc2Cl)C2CCC2)c2ccc3[nH]nc(F)c3c2)cc1 [Example 273, (E)-3-(4-((E)-2-(2-Chloro-4-(trifluoromethoxy)phenyl)-2-cyclobutyl-1-(3-fluoro-1H-indazol-5-yl)vinyl)phenyl)acrylic acid] | ++ (++ = a single % value ≧ 40%) |
| ≤ 100 nM | ≥ 40% | ≤ 100 nM | C/C(=C\c1ccc(/C(=C(\c2ccccc2)C2CCC2)c2ccc3[nH]nc(F)c3c2)cc1)C(=O)O [Example 267, (E)-3-(4-((E)-2-Cyclobutyl-1-(3-fluoro-1H-indazol-5-yl)-2-phenylvinyl)phenyl)-2-methylacrylic acid] | ++ (++ = a single % value ≧ 40%) |
| ≤ 100 nM | ≥ 40% | ≤ 100 nM | CC/C(=C(/c1ccc(/C=C/C(=O)O)cc1)c1ccc2[nH]nc(F)c2c1)c1ccc(OC)nc1C [Example 70, (E)-3-(4-((E)-1-(3-Fluoro-1H-indazol-5-yl)-2-(6-methoxy-2-methylpyridin-3-yl)but-1-en-1-yl)phenyl)acrylic acid] | ++ (++ = a single % value ≧ 40%) |
| ≤ 100 nM | ≥ 40% | ≤ 100 nM | O=C(O)/C=C/c1ccc(/C(=C(\c2cccc(-n3cccn3)c2)C2CCC2)c2ccc3[nH]nc(F)c3c2)cc1 [Example 84, (E)-3-(4-((E)-2-(3-(1H-Pyrazol-1-yl)phenyl)-2-cyclobutyl-1-(3-fluoro-1H-indazol-5-yl)vinyl)phenyl)acrylic acid] | ++ (++ = a single % value ≧ 40%) |
| > 100 nM | ≥ 40% | ≤ 100 nM | O=C(O)/C=C/c1ccc(/C(=C(\c2ccccc2)C2CCC2)c2ccc3c(c2)c(F)nn3CCO)cc1 [Example 201, (E)-3-(4-((E)-2-Cyclobutyl-1-(3-fluoro-1-(2-hydroxyethyl)-1H-indazol-5-yl)-2-phenylvinyl)phenyl)acrylic acid] | ++ (++ = a single % value ≧ 40%) |
| ≤ 100 nM | ≥ 40% | ≤ 100 nM | CC/C(=C(/c1ccc(/C=C/C(=O)O)cc1)c1ccc2[nH]nc(F)c2c1)c1ccc(OC)cc1C#N [Example 107] | ++ (++ = a single % value ≧ 40%) |
| ≤ 100 nM | ≥ 40% | ≤ 100 nM | Cc1nc(/C=C/C(=O)O)ccc1/C(=C(\c1ccccc1)C1CCC1)c1ccc2[nH]nc(F)c2c1 [Example 134, (E)-3-(5-((Z)-2-Cyclobutyl-1-(3-fluoro-1H-indazol-5-yl)-2-phenylvinyl)-6-methylpyridin-2-yl)acrylic acid] | ++ (++ = a single % value ≧ 40%) |
| ≤ 100 nM | ≥ 40% | ≤ 100 nM | COc1ccc(/C(=C(\c2ccc(/C=C/C(=O)O)cc2)c2ccc3scnc3c2)C2CCC2)c(Cl)c1 [Example 232, (E)-3-(4-((E)-1-(Benzo[d]thiazol-5-yl)-2-(2-chloro-4-methoxyphenyl)-2-cyclobutylvinyl)phenyl)acrylic acid] | ++ (++ = a single % value ≧ 40%) |
| ≤ 100 nM | ≥ 40% | ≤ 100 nM | COc1ccc(/C(=C(\c2ccc(/C=C/C(=O)O)cc2)c2ccc3[nH]nc(F)c3c2)C2CCC2)c(C)n1 [Example 69, (E)-3-(4-((E)-2-Cyclobutyl-1-(3-fluoro-1H-indazol-5-yl)-2-(6-methoxy-2-methylpyridin-3-yl)vinyl)phenyl)acrylic acid] | ++ (++ = a single % value ≧ 40%) |
| ≤ 100 nM | ≥ 40% | ≤ 100 nM | CC/C(=C(/c1ccc(/C=C/C(=O)O)cc1)c1ccc2[nH]ncc2c1)c1ccc(C#N)cc1F [Example 151, (E)-3-(4-((E)-2-(4-Cyano-2-fluorophenyl)-1-(1H-indazol-5-yl)but-1-en-1-yl)phenyl)acrylic acid] | ++ (++ = a single % value ≧ 40%) |
| ≤ 100 nM | ≥ 40% | ≤ 100 nM | N#Cc1c(/C(=C(/c2ccccc2)C2CCC2)c2ccc(/C=C/C(=O)O)cc2)ccc2scnc12 [Example 21, (E)-3-(4-((E)-1-(4-Cyanobenzo[d]thiazol-5-yl)-2-cyclobutyl-2-phenylvinyl)phenyl)acrylic acid] | ++ (++ = a single % value ≧ 40%) |
| > 100 nM | ≥ 40% | ≤ 100 nM | COc1cc(/C(=C(\c2ccccc2)C2CCC2)c2ccc3[nH]nc(F)c3c2)cnc1/C=C/C(=O)O [Example 165, (E)-3-(5-((Z)-2-Cyclobutyl-1-(3-fluoro-1H-indazol-5-yl)-2-phenylvinyl)-3-methoxypyridin-2-yl)acrylic acid] | ++ (++ = a single % value ≧ 40%) |
| ≤ 100 nM | ≥ 40% | ≤ 100 nM | COc1cccc(/C(=C(\c2ccc(/C=C/C(=O)O)cc2)c2ccc3scnc3c2)C2CCC2)c1 [Example 92, (E)-3-(4-((E)-1-(Benzo[d]thiazol-5-yl)-2-cyclobutyl-2-(3-methoxyphenyl)vinyl)phenyl)acrylic acid] | ++ (++ = a single % value ≧ 40%) |
| ≤ 100 nM | ≥ 40% | ≤ 100 nM | CC/C(=C(/c1ccc(/C=C/C(=O)O)cc1)c1ccc2[nH]ncc2c1OC)c1ccccc1 [Example 8, (E)-3-(4-((E)-1-(4-Methoxy-1H-indazol-5-yl)-2-phenylbut-1-en-1-yl)phenyl)acrylic acid] | ++ (++ = a single % value ≧ 40%) |
| ≤ 100 nM | ≥ 40% | ≤ 100 nM | O=C(O)/C=C/c1ccc(/C(=C(\c2ccc(Cl)cc2Cl)C2CCC2)c2ccc3[nH]nc(F)c3c2)cn1 [Example 268, (E)-3-(5-((Z)-2-Cyclobutyl-2-(2,4-dichlorophenyl)-1-(3-fluoro-1H-indazol-5-yl)vinyl)pyridin-2-yl)acrylic acid] | ++ (++ = a single % value ≧ 40%) |
